# System: murine P388 lymphocytic leukemia (PS system)
# Assay: PS system cell growth inhibition (P388 murine leukemia cell line, N.C.I. Protocol)
# Format: cell-based
substance,measurement,value
"cyclo [Hymenistatin 1, cyclo [Pro^a -Pro^b -Tyr-Val-Pro^c -Leu-Ili-Ile]]",PS ED50,3.5 µg/mL

# Source: US5130414A, “Isolation and structural elucidation of the cyclic peptide hymenistatin 1” (Arizona Board of Regents, a body corporate of Arizona State …, priority 1989, dated 1992)
